Assay type in all cases: cell-based
One experiment addresses T1, GIP receptor (Homo sapiens, UniProt P48546).
T1 sequence (P48546 22-466): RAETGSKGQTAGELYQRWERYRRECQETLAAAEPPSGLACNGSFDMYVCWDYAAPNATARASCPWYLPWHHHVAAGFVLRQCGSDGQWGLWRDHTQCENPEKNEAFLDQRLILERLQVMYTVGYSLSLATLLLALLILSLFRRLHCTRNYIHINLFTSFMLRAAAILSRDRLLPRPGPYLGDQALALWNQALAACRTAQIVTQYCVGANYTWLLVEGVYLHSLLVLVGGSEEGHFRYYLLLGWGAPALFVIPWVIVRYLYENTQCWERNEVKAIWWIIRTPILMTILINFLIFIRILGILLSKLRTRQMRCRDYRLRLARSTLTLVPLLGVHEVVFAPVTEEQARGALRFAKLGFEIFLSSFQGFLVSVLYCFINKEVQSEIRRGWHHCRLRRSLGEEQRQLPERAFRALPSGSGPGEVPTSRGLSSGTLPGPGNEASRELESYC
Put plainly: cAMP induction, firefly luciferase reporter assay in HEK293 cells co-transfected with GIP receptor. Conditions: for GIPR relative activity: Table 3, relative to the activity of the native hormone.

Another experiment addresses T2, GLP-1 receptor (Homo sapiens, UniProt P43220).
T2 construct: expressed in transfected cells; host or cells: HEK293
Put plainly: cAMP induction, firefly luciferase reporter assay in HEK293 cells co-transfected with GLP-1 receptor. Conditions: for GLP-1R relative activity: Table 3, relative to the activity of the native hormone. The source says: (§1) This example describes an exemplary method of testing the biological activity of the peptides of the present disclosures, which method involves assaying cAMP synthesis.

The next experiment concerns the target T3, glucagon receptor (Homo sapiens, UniProt P47871).
T3 construct: expressed in transfected cells; host or cells: HEK293
Put plainly: cAMP induction, firefly luciferase reporter assay in HEK293 cells co-transfected with glucagon receptor. Conditions: for GR relative activity: Table 3, relative to the activity of the native hormone.
Source text: as §1

Setting [1] is: Table 3, Example 8, read-out: GIPR EC50.
[2] abbreviates: Table 3, Example 8, read-out: GLP-1R EC50.
[3] abbreviates: GIP Receptor EC50, Table 11, Example 18.
[4] abbreviates: GLP-1 Receptor EC50, Table 11, Example 18.
Setting [5] is: Glucagon Receptor EC50, Table 11, Example 18.
Where [6] appears, read: EC50 (nM) at GIP receptor, Table 16, Example 24.
The mark [7] stands for this setting: EC50 (nM) at GLP-1 receptor, Table 16, Example 24.
Setting [8] is: EC50 (nM) at glucagon receptor, Table 16, Example 24.

Read-outs that look alike come from different tables or passages of the source. *1 amine or outer side, *2 acyl side, *3 side chain or, on linkers, in order; H or OH if unused. Where a SMILES comes first, the peptide text is derived from it. Bridges are numbered along the chain shown (N, C = ends). Where no end group is shown, it is not given here. Side-chain parts run from the residue outwards. [ ]: non-standard residue; d: D form. The star is where a group is joined. PEG8 = NCCOCCOCCOCCOCCOCCOCCOCCOCCC(=O)O; Phe(4-NH2) = Nc1ccc(C[C@H](N)C(=O)O)cc1; γGlu = O=C(O)[C@H](CCC(=O)[*:2])N[*:1]; X6 = CCCCCCCCCCCCCCCCC(CC(=O)*)C(=O)O; X3 = CCCCCCCCCCCCCCC(CC(=O)*)C(=O)O; Palmitoyl = CCCCCCCCCCCCCCCC(=O)*; PEG4 = NCCOCCOCCOCCOCCC(=O)O; Aib = CC(C)(N)C(=O)O

T2 sequence (P43220 24-463): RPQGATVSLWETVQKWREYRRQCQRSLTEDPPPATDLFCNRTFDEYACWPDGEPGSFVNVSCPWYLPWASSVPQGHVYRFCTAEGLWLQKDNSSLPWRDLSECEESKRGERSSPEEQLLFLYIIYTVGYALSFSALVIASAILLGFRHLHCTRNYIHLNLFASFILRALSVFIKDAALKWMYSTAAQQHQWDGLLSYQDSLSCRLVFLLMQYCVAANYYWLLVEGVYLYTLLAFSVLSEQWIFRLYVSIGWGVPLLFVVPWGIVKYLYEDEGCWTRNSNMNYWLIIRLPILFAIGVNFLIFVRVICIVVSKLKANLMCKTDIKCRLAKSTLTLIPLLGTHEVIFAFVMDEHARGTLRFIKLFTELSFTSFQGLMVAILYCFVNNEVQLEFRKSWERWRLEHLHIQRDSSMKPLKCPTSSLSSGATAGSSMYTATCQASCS
T3 sequence (P47871 26-477): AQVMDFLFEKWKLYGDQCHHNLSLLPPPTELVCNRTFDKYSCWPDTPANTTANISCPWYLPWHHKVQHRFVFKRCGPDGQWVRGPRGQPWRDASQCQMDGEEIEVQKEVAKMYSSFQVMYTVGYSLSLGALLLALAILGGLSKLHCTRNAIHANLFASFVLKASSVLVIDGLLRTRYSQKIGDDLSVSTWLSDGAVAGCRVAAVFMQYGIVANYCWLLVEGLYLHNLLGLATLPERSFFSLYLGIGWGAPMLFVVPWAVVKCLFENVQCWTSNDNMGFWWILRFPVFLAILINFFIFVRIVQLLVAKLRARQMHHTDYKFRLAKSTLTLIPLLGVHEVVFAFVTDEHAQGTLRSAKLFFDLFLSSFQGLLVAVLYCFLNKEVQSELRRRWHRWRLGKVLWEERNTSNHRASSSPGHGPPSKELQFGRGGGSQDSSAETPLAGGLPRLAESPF

Take `CCCCCCCCCCCCCCCC(=O)N[C@@H](CCC(=O)N[C@@H](CCC(=O)NCCCC[C@H](NC(=O)[C@H](CC(=O)O)NC(=O)[C@H](CO)NC(=O)[C@@H](NC(=O)[C@H](Cc1ccccc1)NC(=O)[C@@H](NC(=O)CNC(=O)[C@H](CCC(N)=O)NC(=O)C(C)(C)NC(=O)[C@@H](N)Cc1ccc(O)cc1)[C@@H](C)O)[C@@H](C)O)C(=O)N[C@@H](CO)C(=O)N[C@H](C(=O)N[C@@H](Cc1ccc(O)cc1)C(=O)N[C@@H](CC(C)C)C(=O)N[C@@H](CC(=O)O)C(=O)N[C@@H](CCCCN)C(=O)N[C@@H](CCC(N)=O)C(=O)N[C@@H](C)C(=O)N[C@@H](C)C(=O)NC(C)(C)C(=O)N[C@@H](CCC(=O)O)C(=O)N[C@@H](Cc1ccccc1)C(=O)N[C@H](C(=O)N[C@@H](CC(N)=O)C(=O)N[C@@H](Cc1c[nH]c2ccccc12)C(=O)N[C@@H](CC(C)C)C(=O)N[C@@H](CC(C)C)C(=O)N[C@@H](CC(=O)O)C(=O)NCC(=O)NCC(=O)N1CCC[C@H]1C(=O)N[C@@H](CO)C(=O)N[C@@H](CO)C(=O)NCC(=O)N[C@@H](C)C(=O)N1CCC[C@H]1C(=O)N1CCC[C@H]1C(=O)N1CCC[C@H]1C(=O)N[C@@H](CO)C(N)=O)C(C)C)[C@@H](C)CC)C(=O)O)C(=O)O` [compound 91] (H-Y[Aib]QGTFTSDK([γGlu-γGlu-Palmitoyl])SIYLDKQAA[Aib]EFVNWLLDGGPSSGAPPPS-NH2; N-terminus assumed): the EC50 stood at 0.005 nM at GIP receptor (EC50 (nM) at GIP Receptor, Table 7, Example 13); 0.008 nM on GLP-1 receptor (EC50 (nM) at GLP-1 Receptor, Table 7, Example 13); 0.073 nM on glucagon receptor (EC50 (nM) at Glucagon Receptor, Table 7, Example 13).
Take “Example 8 peptide: Tyr1, AIB2, Glu16/Lys20 lactam, Leu-Ala-Gly 27-29, GPSSGAPPPS 30-39, or a peptide lacking a lactam [mt-217]”: the EC50 at GIP receptor (setting [1]) amounted to 9.57 nM; on GLP-1 receptor (setting [2]), 0.222 nM. Further, the GIPR relative activity at GIP receptor was determined as 0.20%. The same compound returned a GLP-1R relative activity on GLP-1 receptor of 11.26%. The same compound yielded a GR relative activity at glucagon receptor of 0.82%.
The like results for “Example 8 peptide: Tyr1, AIB2, Glu16/Lys20 lactam, Leu-Ala-Gly 27-29, GPSSGAPPPS 30-39, or a peptide lacking a lactam [mt-218]” were, in that order, 14.3 nM, 0.338 nM, 0.13%, 7.40% and 0.70%.
The like results for “Example 8 peptide: Tyr1, AIB2, Glu16/Lys20 lactam, Leu-Ala-Gly 27-29, GPSSGAPPPS 30-39, or a peptide lacking a lactam [mt-219]” were, in that order, 6.17 nM, 0.151 nM, “.31%”, 16.56% and 0.65%.
The like results for “Example 8 peptide: Tyr1, AIB2, Glu16/Lys20 lactam, Leu-Ala-Gly 27-29, GPSSGAPPPS 30-39, or a peptide lacking a lactam [mt-220]” were, in that order, 10.3 nM, 0.18 nM, 0.19%, 13.89% and 1.18%.
“Example 8 peptide: Tyr1, AIB2, Glu16/Lys20 lactam, Leu-Ala-Gly 27-29, GPSSGAPPPS 30-39, or a peptide lacking a lactam [mt-225] (Y[Aib]QGTFTSDYSIYLDEQAAKEFVNWLLAGGPSSGAPPPSK([Ala-Cys(PEG 40 kDa)-Ac]); lactam 16-20; not fully specified (C-terminus))” yielded a GIPR relative activity with GIP receptor of 0.90%. The GLP-1R relative activity in the experiment with GLP-1 receptor came to 29.59%. Further, in the experiment with glucagon receptor, the GR relative activity is listed as 1.99%.
Consider “Example 8 peptide: Tyr1, AIB2, Glu16/Lys20 lactam, Leu-Ala-Gly 27-29, GPSSGAPPPS 30-39, or a peptide lacking a lactam [mt-226]”, for which the EC50 came out at 1.47 nM at GIP receptor (setting [1]) and 0.097 nM on GLP-1 receptor (setting [2]). Besides, on GIP receptor, the GIPR relative activity amounted to 1.16%. This compound also gave a GLP-1R relative activity at GLP-1 receptor of 29.90%. Further, on glucagon receptor, the GR relative activity was 1.56%.
In turn, “Example 8 peptide: Tyr1, AIB2, Glu16/Lys20 lactam, Leu-Ala-Gly 27-29, GPSSGAPPPS 30-39, or a peptide lacking a lactam [mt-227] (Y[Aib]QGTFTSDYSIYLDEQAAKEFVNWLLAGGPSSGAPPPSK([Arg-Cys(PEG 40 kDa)-Ac]); lactam 16-20; not fully specified (C-terminus))” yielded a GIPR relative activity in the experiment with GIP receptor of 1.29%. This compound also had a GLP-1R relative activity with GLP-1 receptor of 36.25%. Further, the GR relative activity with glucagon receptor was determined as 1.27%.
Take “Example 8 peptide: Tyr1, AIB2, Glu16/Lys20 lactam, Leu-Ala-Gly 27-29, GPSSGAPPPS 30-39, or a peptide lacking a lactam [mt-228]”: the EC50 is 2.27 nM on GIP receptor (setting [1]) and 0.146 nM at GLP-1 receptor (setting [2]). At GIP receptor, this compound yielded a GIPR relative activity of 0.75%. Further, the GLP-1R relative activity on GLP-1 receptor stood at 19.86%. This compound registered a GR relative activity at glucagon receptor of 1.01%.
On to “H-H[Aib]QGTFTSDYSKYLDERAAQDFVQWLLDGGPSSGAPPPSK([PEG4-γGlu-Palmitoyl])G-NH2 [SEQ ID NO: 158]”, for which the EC50 was determined as 0.005 nM at GIP receptor (setting [3]), 0.003 nM at GLP-1 receptor (setting [4]) and 0.004 nM at glucagon receptor (setting [5]).
As to “H[Aib]QGTFTSDYSKYLDERAAQDFVQWLLAGGPSSGAPPPSK([γGlu-γGlu-Palmitoyl])G-NH2 [SEQ ID NO: 203]”, the EC50 on GIP receptor (setting [6]) came to 0.007 nM; on GLP-1 receptor (setting [7]), 0.001 nM; on glucagon receptor (setting [8]), 0.003 nM.
Turning to “H[Aib]QGTFTSDYSKYLDERAAQDFVQWLLDGGPSSGAPPPSK(X3)G-NH2 [SEQ ID NO: 176]”, the EC50 on GIP receptor (GIP-1 Receptor EC50, Table 10, Example 16) came out at 0.101 nM; on GLP-1 receptor (GLP-1 Receptor EC50, Table 10, Example 16), 0.014 nM; on glucagon receptor, 0.012 nM.
On to “H[Aib]QGTFTSDYSKYLDERAAQDFVQWLLDGGPSSGAPPPSK(X6)G-NH2 [SEQ ID NO: 156]”, for which the EC50 was found to be 0.006 nM at GIP receptor (setting [3]), 0.003 nM on GLP-1 receptor (setting [4]) and 0.003 nM at glucagon receptor.
As for “H[Aib]QGTFTSDYSKYLDERAAQDFVQWLLDGGPSSGAPPPSK([PEG8-γGlu-Palmitoyl])G-NH2 [SEQ ID NO: 159]”, the values for the EC50 at GIP receptor (setting [3]), at GLP-1 receptor (setting [4]) and at glucagon receptor (setting [5]) were 0.002 nM, 0.005 nM and 0.006 nM, respectively.
For “H[Aib]QGTFTSDYSKYLDERAAQDFVQWLLDGGPSSGAPPPSK([γGlu-γGlu-Palmitoyl])G-NH2 [SEQ ID NO: 89]”, the EC50 on GIP receptor (setting [6]) came to 0.028 nM; at GLP-1 receptor (EC50 (nM) at GLP-1 receptor, Table 15, Example 23), 0.004 nM; at GLP-1 receptor (setting [7]), 0.005 nM; at glucagon receptor (setting [8]), 0.006 nM.
Regarding “H[Aib]QGTFTSDYSKYLDERAAQDFVQWLLDGGPSSGAPPPS[Phe(4-NH2)](X6)G-NH2 [SEQ ID NO: 146]”, the EC50 came out at 0.052 nM at GIP receptor, 0.007 nM on GLP-1 receptor and 0.007 nM on glucagon receptor.
In the case of “H[Aib]QGTFTSDYSKYLDERAAQDFVQWLLDGGPSSGAPPPS[Phe(4-NH2)]([γGlu-γGlu-Palmitoyl])G-NH2 [SEQ ID NO: 145]”, the concentration for a half-maximal effect (EC50) on GIP receptor was 0.017 nM; on GLP-1 receptor, 0.002 nM; at glucagon receptor, 0.002 nM.

For the origin of these results see patent US9587005B2 (priority 2010, dated 2017).
